Experimental data from patent publication US8133849B2, “Herbicidal compounds” (Syngenta Limited, priority 2007, dated 2012).

How the values were obtained:
Experiment in all cases: Example B2 herbicidal action, post-emergence, pots in glasshouse, damage score 0-10
Format in all cases: in vivo
Conditions in all cases: application post-emergence, rate 1000 g/ha, evaluated after 13 days
Echinochloa crus-galli = system: Echinochloa crus-galli
Outline: (§1)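 Seedlings grown 8 days in a controlled glasshouse received a foliar spray of the compound formulated in 50:50 acetone/water plus 0.5% Tween 20; plant damage was assessed 13 days afterward.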

Setaria faberi = system: Setaria faberi
Outline: as §1

Solanum nigrum = system: Solanum nigrum
Outline: as §1

Ipomea hederaceae = system: Ipomea hederaceae
Outline: as §1

Amaranthus retroflexus = system: Amaranthus retroflexus
Outline: as §1

| Compound | ECHCG damage score (10=total damage to plant; 0=no damage to plant) (Echinochloa crus-galli) | SETFA damage score (10=total damage to plant; 0=no damage to plant) (Setaria faberi) | SOLNI damage score (10=total damage to plant; 0=no damage to plant) (Solanum nigrum) | IPOHE damage score (10=total damage to plant; 0=no damage to plant) (Ipomea hederaceae) | AMARE damage score (10=total damage to plant; 0=no damage to plant) (Amaranthus retroflexus) |
| --- | --- | --- | --- | --- | --- |
| CCN1c2nccnc2C(O)=C(c2ccccc2OC(F)(F)F)S1(=O)=O [Compound D5] | 4 | 6 | 10 | 9 | 10 |
| O=S1(=O)C(c2c(F)ccc(Br)c2Cl)=C(O)c2nccnc2N1CC(F)F [Compound D14] | 7 | 5 | 9 | 9 | 9 |
| O=C(OC1=C(c2c(Cl)ccc(Cl)c2Cl)S(=O)(=O)N(CC(F)F)c2nccnc21)Sc1ccccc1 [Compound C126] | 7 | 4 | 9 | 7 | 9 |
| COc1cccc(F)c1C1=C(OC(=O)C(C)C)c2nccnc2N(CC(F)F)S1(=O)=O [Compound C137] | 3 | 8 | 9 | 8 | 7 |
| O=S1(=O)C(c2c(Br)cccc2Br)=C(O)c2nccnc2N1CC(F)F [Compound D28] | 8 | 8 | 9 | 8 | 10 |
| CC(C)(C)C(=O)OC1=C(c2cccc(Cl)c2Cl)S(=O)(=O)N(CC(F)F)c2nccnc21 [Compound C100] | 2 | 2 | 9 | 6 | 4 |
| COc1ccc(Cl)c(C2=C(OC(=O)C(C)(C)C)c3nccnc3N(CC(F)F)S2(=O)=O)c1F [Compound C144] | 0 | 0 | 4 | 7 | 0 |
| CC(C)C(=O)OC1=C(c2ccccc2I)S(=O)(=O)N(CC(F)F)c2nccnc21 [Compound C117] | 8 | 7 | 10 | 9 | 10 |
| CCN1c2nccnc2C(OC(=O)C(C)(C)C)=C(c2c(F)cccc2C(F)(F)F)S1(=O)=O [Compound C43] | 5 | 3 | 6 | 5 | 5 |
| CCN1c2nccnc2C(O)=C(c2c(F)ccc(Cl)c2Cl)S1(=O)=O [Compound D4] | 4 | 2 | 10 | 10 | 8 |
| CCSC(=O)OC1=C(c2cc(F)c(Cl)cc2Cl)S(=O)(=O)N(CC(F)F)c2nccnc21 [Compound C88] | 6 | 4 | 9 | 9 | 9 |
| CCSC(=O)OC1=C(c2cc(Cl)ccc2C(F)(F)F)S(=O)(=O)N(CC)c2nccnc21 [Compound C109] | 5 | 2 | 8 | 9 | 5 |
| CCN1c2nccnc2C(OC(=O)C(C)C)=C(c2cccc(C(F)(F)F)c2Cl)S1(=O)=O [Compound C75] | 1 | 0 | 6 | 2 | 5 |
| CC(C)C(=O)OC1=C(c2c(C(F)(F)F)cccc2C(F)(F)F)S(=O)(=O)N(CC(F)F)c2nccnc21 [Compound C79] | 7 | 6 | 9 | 9 | 9 |
| O=[N+]([O-])c1ccccc1C1=C(O)c2nccnc2N(CC(F)F)S1(=O)=O [Compound D32] | 0 | 1 | 6 | 5 | 5 |
| CC(C)C(=O)OC1=C(c2ccccc2OC(F)(F)F)S(=O)(=O)N(CC(F)F)c2nccnc21 [Compound C22] | 7 | 4 | 10 | 9 | 10 |
| CCN1c2nccnc2C(O)=C(c2ccccc2C(F)(F)F)S1(=O)=O [Compound D33] | 8 | 8 | 10 | 10 | 9 |
| CC(C)C(=O)OC1=C(c2c(Br)cccc2Br)S(=O)(=O)N(CC(F)F)c2nccnc21 [Compound C49] | 8 | 6 | 9 | 9 | 9 |
| O=S1(=O)C(c2c(F)ccc(Cl)c2Cl)=C(O)c2nccnc2N1CC(F)F [Compound D9, 3-(2,3-dichloro-6-fluoro-phenyl)-1-(2,2-difluoro-ethyl)-2,2-dioxo-1,2-dihydro-2-λ-6-thia-1,5,8-triaza-naphthalen-4-ol] | 4 | 2 | 10 | 10 | 9 |
| O=S1(=O)C(c2ccccc2I)=C(O)c2nccnc2N1CC(F)F [Compound D44] | 9 | 6 | 10 | 10 | 10 |
| CC(C)(C)C(=O)OC1=C(c2cc(-c3cccc(Cl)c3)ccc2Cl)S(=O)(=O)N(CC(F)F)c2nccnc21 [Compound C56] | 0 | 0 | 2 | 0 | 10 |
| C#CCN1c2nccnc2C(OC(=O)C(C)C)=C(c2ccccc2[N+](=O)[O-])S1(=O)=O [Compound C68] | 0 | 0 | 2 | 1 | 0 |
| O=S1(=O)C(c2c(F)ccc(-c3cccc(Cl)c3)c2Cl)=C(O)c2nccnc2N1CC(F)F [Compound D20] | 1 | 1 | 5 | 6 | 3 |
| COCN1c2nccnc2C(OC(=O)C(C)(C)C)=C(c2ccc(Cl)cc2Cl)S1(=O)=O [Compound C11] | 3 | 4 | 6 | 2 | 1 |
| CN1c2nccnc2C(OC(=O)C(C)(C)C)=C(c2c(Cl)ccc(Cl)c2Cl)S1(=O)=O [Compound C93] | 3 | 0 | 6 | 6 | 0 |
| CCN1c2nccnc2C(OC(=O)C(C)C)=C(c2ccccc2C(F)(F)F)S1(=O)=O [Compound C63] | 7 | 7 | 9 | 10 | 9 |
